Experimental data from patent publication US20200239530A1, “COMPOUNDS AND METHODS OF MODULATING PROTEIN DEGRADATION” (Vividion Therapeutics, Inc., priority 2017, published 2020).
Where two headings read alike, the source gives them in different places.

Columns and labels:
Experiment in all cases: Cysteine liganding, probe competition
Type in all cases: binding
[1] = target: T1, UniProt Q6Q0C0 (Homo sapiens, UniProt Q6Q0C0)
T1 construct: 200 μL of lysate containing 5 mg/ml proteome was treated with 2 μL of 100× compound stock; endogenous in cells
T1 sequence (Q6Q0C0 1-670): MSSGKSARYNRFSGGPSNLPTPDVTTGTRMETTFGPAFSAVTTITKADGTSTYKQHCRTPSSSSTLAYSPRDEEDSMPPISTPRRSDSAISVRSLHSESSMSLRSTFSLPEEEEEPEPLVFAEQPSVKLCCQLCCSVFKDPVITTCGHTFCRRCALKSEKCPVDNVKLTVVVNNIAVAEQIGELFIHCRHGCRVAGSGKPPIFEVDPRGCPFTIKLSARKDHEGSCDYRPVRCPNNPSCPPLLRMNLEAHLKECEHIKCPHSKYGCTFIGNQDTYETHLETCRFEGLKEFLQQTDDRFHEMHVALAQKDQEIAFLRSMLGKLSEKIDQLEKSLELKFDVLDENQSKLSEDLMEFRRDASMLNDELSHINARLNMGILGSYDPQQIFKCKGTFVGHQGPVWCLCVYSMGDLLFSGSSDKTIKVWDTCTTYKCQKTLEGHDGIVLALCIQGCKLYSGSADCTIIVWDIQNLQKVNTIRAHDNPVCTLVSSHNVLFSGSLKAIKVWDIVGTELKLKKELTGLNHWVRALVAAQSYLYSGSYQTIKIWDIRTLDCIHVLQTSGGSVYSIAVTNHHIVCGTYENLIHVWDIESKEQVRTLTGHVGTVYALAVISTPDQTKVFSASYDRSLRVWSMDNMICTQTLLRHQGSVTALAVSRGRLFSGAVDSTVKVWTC
Text: (§1) The following 96-well sample prep protocol was used for sample preparation.

[2] = target: T2, UniProt Q7Z6E9 (Homo sapiens, UniProt Q7Z6E9); conditions: read-out: KB02_100 uM_percent_inhibition
T2 construct: 200 μL of lysate containing 5 mg/ml proteome was treated with 2 μL of 100× compound stock; endogenous in cells
Text: as §1

[3] = target: T3, UniProt Q9C040 (Homo sapiens, UniProt Q9C040)
T3 construct: 200 μL of lysate containing 5 mg/ml proteome was treated with 2 μL of 100× compound stock; endogenous in cells
T3 sequence (Q9C040 whole entry, change not shown): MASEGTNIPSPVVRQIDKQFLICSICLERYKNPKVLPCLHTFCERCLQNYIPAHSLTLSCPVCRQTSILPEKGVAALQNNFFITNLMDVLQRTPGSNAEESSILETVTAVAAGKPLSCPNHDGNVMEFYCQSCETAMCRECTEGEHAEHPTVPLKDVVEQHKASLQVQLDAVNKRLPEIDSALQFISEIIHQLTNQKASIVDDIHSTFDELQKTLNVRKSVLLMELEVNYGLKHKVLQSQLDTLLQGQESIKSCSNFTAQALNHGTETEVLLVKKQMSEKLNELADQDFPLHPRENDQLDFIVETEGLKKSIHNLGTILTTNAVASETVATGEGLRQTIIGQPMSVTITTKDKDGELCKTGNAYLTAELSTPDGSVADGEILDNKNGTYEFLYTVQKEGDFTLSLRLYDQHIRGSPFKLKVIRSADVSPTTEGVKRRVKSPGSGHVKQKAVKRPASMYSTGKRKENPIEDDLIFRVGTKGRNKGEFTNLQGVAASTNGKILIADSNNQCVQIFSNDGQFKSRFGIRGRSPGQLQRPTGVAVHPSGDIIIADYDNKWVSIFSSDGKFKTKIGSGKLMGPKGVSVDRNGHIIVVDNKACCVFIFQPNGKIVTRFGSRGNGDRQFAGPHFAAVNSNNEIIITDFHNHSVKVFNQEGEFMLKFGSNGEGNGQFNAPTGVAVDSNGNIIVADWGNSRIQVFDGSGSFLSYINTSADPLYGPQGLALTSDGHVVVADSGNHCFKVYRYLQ
Text: as §1

[4] = target: T4, UniProt E7ERA6 (Homo sapiens, UniProt E7ERA6)
T4 construct: 200 μL of lysate containing 5 mg/ml proteome was treated with 2 μL of 100× compound stock; endogenous in cells
T4 sequence (E7ERA6 whole entry, change not shown): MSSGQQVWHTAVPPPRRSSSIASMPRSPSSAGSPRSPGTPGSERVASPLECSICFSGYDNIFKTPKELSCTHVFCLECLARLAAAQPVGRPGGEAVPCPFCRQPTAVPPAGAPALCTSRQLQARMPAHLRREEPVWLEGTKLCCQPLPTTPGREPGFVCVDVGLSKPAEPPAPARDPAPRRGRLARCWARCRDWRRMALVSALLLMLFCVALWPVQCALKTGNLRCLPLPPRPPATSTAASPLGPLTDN
Text: as §1

[5] = target: T5, UniProt O15344 (Homo sapiens, UniProt O15344); conditions: 500 uM
T5 construct: Cells were resuspended in cold PBS on ice and sonicated with a probe sonicator to achieve lysis; endogenous in cells
Text: as §1

[6] = target: T6, UniProt Q5U5Q3 (Homo sapiens, UniProt Q5U5Q3); conditions: read-out: percent inhibition
T6 construct: Cells were resuspended in cold PBS on ice and sonicated with a probe sonicator to achieve lysis; endogenous in cells
Text: as §1

[7] = target: T7, UniProt P51948 (Homo sapiens, UniProt P51948); conditions: read-out: percent inhibition
T7 construct: Cells were resuspended in cold PBS on ice and sonicated with a probe sonicator to achieve lysis; endogenous in cells
Text: as §1

[8] = target: T8, UniProt A8MQ27 (Homo sapiens, UniProt A8MQ27); conditions: read-out: percent inhibition
T8 construct: Cells were resuspended in cold PBS on ice and sonicated with a probe sonicator to achieve lysis; endogenous in cells
T8 sequence (A8MQ27 whole entry, change not shown): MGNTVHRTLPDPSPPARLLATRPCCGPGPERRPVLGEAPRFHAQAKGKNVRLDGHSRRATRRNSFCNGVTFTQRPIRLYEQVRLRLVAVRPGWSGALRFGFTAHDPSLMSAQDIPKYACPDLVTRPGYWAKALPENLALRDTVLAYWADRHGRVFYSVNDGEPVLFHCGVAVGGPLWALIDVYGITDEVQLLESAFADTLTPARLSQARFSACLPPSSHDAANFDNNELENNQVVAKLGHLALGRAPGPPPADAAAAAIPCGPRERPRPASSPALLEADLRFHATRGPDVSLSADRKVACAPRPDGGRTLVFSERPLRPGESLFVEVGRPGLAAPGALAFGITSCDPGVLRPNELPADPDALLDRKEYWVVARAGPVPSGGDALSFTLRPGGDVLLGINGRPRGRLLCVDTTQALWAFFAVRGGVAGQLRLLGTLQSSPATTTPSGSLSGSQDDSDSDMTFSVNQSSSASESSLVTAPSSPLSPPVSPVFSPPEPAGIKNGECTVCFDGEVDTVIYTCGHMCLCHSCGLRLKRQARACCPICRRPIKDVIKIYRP
Text: as §1

[9] = target: T9, UniProt Q86YT6 (Homo sapiens, UniProt Q86YT6); conditions: read-out: percent inhibition
T9 construct: Cells were resuspended in cold PBS on ice and sonicated with a probe sonicator to achieve lysis; endogenous in cells
Text: as §1

[10] = target: T10, UniProt Q9C037 (Homo sapiens, UniProt Q9C037); conditions: read-out: KB05_100 uM_percent_inhibition
T10 construct: 200 μL of lysate containing 5 mg/ml proteome was treated with 2 μL of 100× compound stock; endogenous in cells
T10 sequence (Q9C037 whole entry, change not shown): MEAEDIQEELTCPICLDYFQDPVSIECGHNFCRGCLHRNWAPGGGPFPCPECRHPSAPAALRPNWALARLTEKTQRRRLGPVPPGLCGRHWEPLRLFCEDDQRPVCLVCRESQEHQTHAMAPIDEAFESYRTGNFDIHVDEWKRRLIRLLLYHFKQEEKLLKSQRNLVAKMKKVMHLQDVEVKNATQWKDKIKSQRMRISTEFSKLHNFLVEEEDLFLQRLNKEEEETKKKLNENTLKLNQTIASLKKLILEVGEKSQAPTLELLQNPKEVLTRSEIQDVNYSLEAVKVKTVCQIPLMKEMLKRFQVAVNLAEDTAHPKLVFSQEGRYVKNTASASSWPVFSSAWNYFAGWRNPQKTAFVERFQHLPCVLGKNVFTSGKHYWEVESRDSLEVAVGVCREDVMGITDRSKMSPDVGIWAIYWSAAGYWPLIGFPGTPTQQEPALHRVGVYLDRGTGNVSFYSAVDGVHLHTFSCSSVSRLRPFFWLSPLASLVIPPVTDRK
Text: as §1

[11] = target: T11, UniProt Q8N653 (Homo sapiens, UniProt Q8N653); conditions: read-out: percent inhibition
T11 construct: Cells were resuspended in cold PBS on ice and sonicated with a probe sonicator to achieve lysis; endogenous in cells
Text: as §1

[12] = target: T12, UniProt Q8IUQ4 (Homo sapiens, UniProt Q8IUQ4)
T12 construct: 200 μL of lysate containing 5 mg/ml proteome was treated with 2 μL of 100× compound stock; endogenous in cells
T12 sequence (Q8IUQ4 whole entry, change not shown): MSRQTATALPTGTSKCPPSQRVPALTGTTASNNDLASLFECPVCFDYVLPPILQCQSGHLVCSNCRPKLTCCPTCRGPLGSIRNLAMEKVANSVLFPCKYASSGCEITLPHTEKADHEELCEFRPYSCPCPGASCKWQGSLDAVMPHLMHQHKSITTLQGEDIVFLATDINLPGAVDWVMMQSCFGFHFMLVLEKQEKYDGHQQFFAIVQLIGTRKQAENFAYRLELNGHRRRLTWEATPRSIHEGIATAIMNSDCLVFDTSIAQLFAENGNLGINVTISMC
Text: as §1

[13] = target: T13, UniProt O60291 (Homo sapiens, UniProt O60291)
T13 construct: Cells were resuspended in cold PBS on ice and sonicated with a probe sonicator to achieve lysis; endogenous in cells
T13 sequence (O60291 whole entry, change not shown): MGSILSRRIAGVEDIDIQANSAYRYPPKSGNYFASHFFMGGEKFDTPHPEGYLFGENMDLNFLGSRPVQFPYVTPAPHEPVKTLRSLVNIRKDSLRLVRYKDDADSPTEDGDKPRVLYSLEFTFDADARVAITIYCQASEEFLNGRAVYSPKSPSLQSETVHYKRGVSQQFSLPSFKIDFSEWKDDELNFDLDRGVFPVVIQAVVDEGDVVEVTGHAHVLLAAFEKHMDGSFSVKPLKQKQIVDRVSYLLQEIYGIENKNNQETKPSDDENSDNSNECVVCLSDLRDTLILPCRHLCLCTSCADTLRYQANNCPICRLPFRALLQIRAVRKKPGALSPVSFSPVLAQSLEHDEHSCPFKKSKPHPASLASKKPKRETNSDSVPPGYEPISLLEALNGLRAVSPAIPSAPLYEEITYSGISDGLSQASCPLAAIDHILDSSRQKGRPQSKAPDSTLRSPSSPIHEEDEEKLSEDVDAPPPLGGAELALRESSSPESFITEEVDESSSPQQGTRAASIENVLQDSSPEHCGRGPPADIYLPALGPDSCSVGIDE
Text: as §1

[14] = target: T14, UniProt Q5VTB9 (Homo sapiens, UniProt Q5VTB9); conditions: read-out: percent_inhibition
T14 construct: 200 μL of lysate containing 5 mg/ml proteome was treated with 2 μL of 100× compound stock; endogenous in cells
Text: as §1

[15] = target: T15, UniProt Q9UPQ7 (Homo sapiens, UniProt Q9UPQ7)
T15 construct: 200 μL of lysate containing 5 mg/ml proteome was treated with 2 μL of 100× compound stock; endogenous in cells
T15 sequence (Q9UPQ7 whole entry, change not shown): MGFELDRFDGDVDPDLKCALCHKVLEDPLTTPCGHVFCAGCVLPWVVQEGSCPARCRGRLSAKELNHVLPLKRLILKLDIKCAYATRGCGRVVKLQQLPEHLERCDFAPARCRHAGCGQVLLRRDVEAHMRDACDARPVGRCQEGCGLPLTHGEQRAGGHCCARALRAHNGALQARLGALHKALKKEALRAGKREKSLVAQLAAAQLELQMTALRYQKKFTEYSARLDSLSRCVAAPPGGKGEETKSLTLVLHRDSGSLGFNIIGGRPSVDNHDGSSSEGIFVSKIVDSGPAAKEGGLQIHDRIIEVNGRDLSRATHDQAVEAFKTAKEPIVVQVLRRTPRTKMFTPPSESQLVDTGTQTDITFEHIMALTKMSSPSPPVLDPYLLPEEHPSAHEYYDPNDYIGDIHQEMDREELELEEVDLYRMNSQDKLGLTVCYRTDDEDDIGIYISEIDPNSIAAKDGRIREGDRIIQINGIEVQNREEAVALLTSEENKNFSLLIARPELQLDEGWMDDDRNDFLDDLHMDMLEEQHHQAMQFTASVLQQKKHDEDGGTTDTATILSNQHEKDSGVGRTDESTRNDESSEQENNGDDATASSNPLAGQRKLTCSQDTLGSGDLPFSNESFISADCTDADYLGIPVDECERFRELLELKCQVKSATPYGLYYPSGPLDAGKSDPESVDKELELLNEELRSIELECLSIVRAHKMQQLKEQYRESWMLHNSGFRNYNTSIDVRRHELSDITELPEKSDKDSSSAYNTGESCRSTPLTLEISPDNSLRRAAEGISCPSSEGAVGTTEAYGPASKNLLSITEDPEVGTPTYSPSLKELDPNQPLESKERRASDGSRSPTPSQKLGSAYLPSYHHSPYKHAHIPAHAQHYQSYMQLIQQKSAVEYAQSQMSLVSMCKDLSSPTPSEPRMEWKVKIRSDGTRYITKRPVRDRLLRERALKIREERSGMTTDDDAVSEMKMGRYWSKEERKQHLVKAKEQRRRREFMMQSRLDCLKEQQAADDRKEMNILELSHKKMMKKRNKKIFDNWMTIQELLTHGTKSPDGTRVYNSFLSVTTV
Text: as §1

[16] = target: T16, UniProt Q149N8 (Homo sapiens, UniProt Q149N8); conditions: read-out: percent_inhibition
T16 construct: 200 μL of lysate containing 5 mg/ml proteome was treated with 2 μL of 100× compound stock; endogenous in cells
Text: as §1

[17] = target: T17, UniProt Q13356 (Homo sapiens, UniProt Q13356); conditions: read-out: KB05_500 uM_percent_inhibition
T17 construct: 200 μL of lysate containing 5 mg/ml proteome was treated with 2 μL of 100× compound stock; endogenous in cells
Text: as §1

[18] = target: T18, UniProt Q9C030 (Homo sapiens, UniProt Q9C030); conditions: read-out: KB05_500 uM_percent_inhibition
T18 construct: 200 μL of lysate containing 5 mg/ml proteome was treated with 2 μL of 100× compound stock; endogenous in cells
Text: as §1

[19] = target: T19, UniProt Q99942 (Homo sapiens, UniProt Q99942)
T19 construct: 200 μL of lysate containing 5 mg/ml proteome was treated with 2 μL of 100× compound stock; endogenous in cells
T19 sequence (Q99942 whole entry, change not shown): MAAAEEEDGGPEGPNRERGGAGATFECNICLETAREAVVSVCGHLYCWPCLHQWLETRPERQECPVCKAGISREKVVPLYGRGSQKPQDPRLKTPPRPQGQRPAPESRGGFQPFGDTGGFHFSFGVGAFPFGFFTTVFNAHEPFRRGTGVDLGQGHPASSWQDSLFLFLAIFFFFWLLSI
Text: as §1

[20] = target: T20, UniProt O14512 (Homo sapiens, UniProt O14512); conditions: read-out: percent_inhibition
T20 construct: 200 μL of lysate containing 5 mg/ml proteome was treated with 2 μL of 100× compound stock; endogenous in cells
Text: as §1

[21] = target: T21, UniProt Q13309 (Homo sapiens, UniProt Q13309); conditions: read-out: percent_inhibition
T21 construct: 200 μL of lysate containing 5 mg/ml proteome was treated with 2 μL of 100× compound stock; endogenous in cells
Text: as §1

[22] = target: T22, UniProt Q9C019 (Homo sapiens, UniProt Q9C019); conditions: 100 uM
T22 construct: 200 μL of lysate containing 5 mg/ml proteome was treated with 2 μL of 100× compound stock; endogenous in cells
Text: as §1

[23] = target: T23, UniProt Q86TM6 (Homo sapiens, UniProt Q86TM6); conditions: 100 uM
T23 construct: 200 μL of lysate containing 5 mg/ml proteome was treated with 2 μL of 100× compound stock; endogenous in cells
Text: as §1

[24] = target: T24, UniProt Q15025 (Homo sapiens, UniProt Q15025); conditions: 100 uM
T24 construct: 200 μL of lysate containing 5 mg/ml proteome was treated with 2 μL of 100× compound stock; endogenous in cells
Text: as §1

[25] = target: T25, UniProt Q86XN8 (Homo sapiens, UniProt Q86XN8); conditions: 100 uM
T25 construct: Cells were resuspended in cold PBS on ice and sonicated with a probe sonicator to achieve lysis; endogenous in cells
T25 sequence (Q86XN8 whole entry, change not shown): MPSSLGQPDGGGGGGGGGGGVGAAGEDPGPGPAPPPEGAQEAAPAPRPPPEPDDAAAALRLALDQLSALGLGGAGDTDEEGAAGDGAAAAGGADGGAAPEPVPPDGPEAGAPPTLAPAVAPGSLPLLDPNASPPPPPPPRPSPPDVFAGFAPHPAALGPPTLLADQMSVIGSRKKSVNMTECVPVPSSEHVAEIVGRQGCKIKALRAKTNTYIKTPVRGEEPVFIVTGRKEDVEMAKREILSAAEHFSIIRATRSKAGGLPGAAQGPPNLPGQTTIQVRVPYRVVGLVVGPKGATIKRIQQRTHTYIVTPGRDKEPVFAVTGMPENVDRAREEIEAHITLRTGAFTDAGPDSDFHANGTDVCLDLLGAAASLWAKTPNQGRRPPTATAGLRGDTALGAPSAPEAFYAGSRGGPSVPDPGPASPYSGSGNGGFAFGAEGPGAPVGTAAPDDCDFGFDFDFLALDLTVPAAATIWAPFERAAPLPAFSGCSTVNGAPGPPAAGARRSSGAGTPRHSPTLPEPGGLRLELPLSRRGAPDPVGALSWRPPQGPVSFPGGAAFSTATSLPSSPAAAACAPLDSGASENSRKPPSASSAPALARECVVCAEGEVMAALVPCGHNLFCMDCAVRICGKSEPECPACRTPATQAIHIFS
Text: as §1

[26] = 100 uM, read-out: KB02_100 uM_percent_inhibition
[27] = 500 uM, read-out: KB02_500 uM_percent_inhibition

Question: Which results are given for `COc1ccc2c(c1)CCCN2C(=O)CCl` [KB02]?
Answer: inhibition at 100 µM [1, 26]: 3%; inhibition at 500 µM [1, 27]: 47%; inhibition at 100 µM ([1]; read-out: percent_inhibition): 1%; inhibition at 100 µM [2]: 23%; inhibition at 100 µM [3, 26]: 20%; inhibition at 500 µM [3, 27]: 32%; percent_inhibition ([4]; 500 uM): 38%; inhibition at 500 µM ([4]; read-out: percent_inhibition): 35%; percent inhibition [5]: 24%; inhibition at 100 µM [6]: 5%; inhibition at 100 µM [7]: 3%

Question: `C=CC(=O)N(c1ccccc1)c1ccc(Br)cc1` [KB05] was tested. Which inhibition at 500 µM [8] did it give?
Answer: 44%

Question: What about the inhibition at 100 µM [9] of the same compound?
Answer: 31%

Question: And the inhibition at 100 µM [10]?
Answer: 11%

Question: What about the inhibition at 100 µM [11] of the same compound?
Answer: 11%

Question: And the percent_inhibition ([12]; 100 uM)?
Answer: 17%

Question: And the inhibition at 100 µM ([12]; read-out: percent_inhibition)?
Answer: 9%

Question: And the percent inhibition ([13]; 100 uM)?
Answer: 20%

Question: And the inhibition at 100 µM ([13]; read-out: percent inhibition)?
Answer: 13%

Question: What about the inhibition at 100 µM [14] of the same compound?
Answer: 2%

Question: What about the “KB05_100 uM_percent_inhibition” value ([15]; 100 uM) of the same compound?
Answer: 24%

Question: And the inhibition at 100 µM ([15]; read-out: KB05_100 uM_percent_inhibition)?
Answer: 20%

Question: And the inhibition at 100 µM [16]?
Answer: 41%

Question: What about the inhibition at 500 µM [17] of the same compound?
Answer: 69%

Question: What about the inhibition at 500 µM [18] of the same compound?
Answer: 53%

Question: And the percent_inhibition ([19]; 100 uM)?
Answer: 15%

Question: What about the inhibition at 100 µM ([19]; read-out: percent_inhibition) of the same compound?
Answer: 14%

Question: What about the inhibition at 500 µM [20] of the same compound?
Answer: 89%

Question: And the inhibition at 100 µM [21]?
Answer: 10%

Question: What does the source list for `O=C(CCl)Nc1cc(C(F)(F)F)cc(C(F)(F)F)c1` [KBO3]?
Answer: KB03_100 uM_percent_inhibition [22]: 18%; percent_inhibition [23]: 19%; percent_inhibition [24]: 3%; percent inhibition [25]: 48%
